Here are results for 9 compounds from ChEMBL document CHEMBL5465560, “Selectivity Literature for EUbOPEN Chemogenomic Library” (2024).

Assay [1] concerns the target LIM domain kinase 1 (Homo sapiens) (UniProt P53667). Put plainly: Selectivity interaction (KinomeScan (DiscoverX)) EUB0000595a LIMK1. The following applies: at 10 µM.
For assay [2], the target named is T1, Mitogen-activated protein kinase kinase kinase 2 (Homo sapiens) (UniProt Q9Y2U5).
T1 sequence (whole entry): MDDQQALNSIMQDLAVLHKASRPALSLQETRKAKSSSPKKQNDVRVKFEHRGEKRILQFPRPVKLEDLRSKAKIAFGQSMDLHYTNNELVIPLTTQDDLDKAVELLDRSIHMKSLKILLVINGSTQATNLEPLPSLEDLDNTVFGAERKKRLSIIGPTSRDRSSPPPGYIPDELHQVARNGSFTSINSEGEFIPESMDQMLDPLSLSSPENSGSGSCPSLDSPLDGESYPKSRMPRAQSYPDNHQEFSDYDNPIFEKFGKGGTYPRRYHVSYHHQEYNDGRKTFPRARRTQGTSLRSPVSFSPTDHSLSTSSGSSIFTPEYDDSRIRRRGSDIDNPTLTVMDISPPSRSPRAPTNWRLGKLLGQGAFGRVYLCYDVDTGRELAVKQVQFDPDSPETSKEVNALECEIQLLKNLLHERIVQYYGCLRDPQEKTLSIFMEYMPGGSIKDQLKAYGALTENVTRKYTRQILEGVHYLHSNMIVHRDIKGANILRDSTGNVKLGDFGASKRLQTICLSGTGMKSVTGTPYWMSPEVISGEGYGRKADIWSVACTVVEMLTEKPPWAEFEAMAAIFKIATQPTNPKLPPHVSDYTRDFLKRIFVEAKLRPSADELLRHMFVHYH
Put plainly: Selectivity interaction (ActivX KiNativ screen (ex vivo kinase selectivity in human PBMCs)) EUB0001619a MAP3K2. The format is cell-based. The following applies: PBMC, at 1 µM.

The target in assay [3] is T2, Serine/threonine-protein kinase STK11 (Homo sapiens) (UniProt Q15831).
T2 sequence (whole entry): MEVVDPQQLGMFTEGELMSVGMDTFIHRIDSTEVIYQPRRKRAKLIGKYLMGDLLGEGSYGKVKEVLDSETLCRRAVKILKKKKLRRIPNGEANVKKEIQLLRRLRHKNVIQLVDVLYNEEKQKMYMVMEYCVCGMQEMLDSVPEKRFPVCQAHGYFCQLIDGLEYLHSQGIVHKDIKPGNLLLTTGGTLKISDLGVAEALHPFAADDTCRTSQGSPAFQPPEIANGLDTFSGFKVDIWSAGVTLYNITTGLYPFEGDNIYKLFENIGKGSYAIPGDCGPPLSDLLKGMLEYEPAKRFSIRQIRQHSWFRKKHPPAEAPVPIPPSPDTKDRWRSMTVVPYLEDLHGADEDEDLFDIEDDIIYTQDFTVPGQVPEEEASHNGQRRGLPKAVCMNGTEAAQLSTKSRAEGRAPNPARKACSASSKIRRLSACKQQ
The note with it: at 10 µM.

Assay [4] concerns the target T3, Rhodopsin kinase GRK7 (Homo sapiens) (UniProt Q8WTQ7).
T3 sequence (whole entry): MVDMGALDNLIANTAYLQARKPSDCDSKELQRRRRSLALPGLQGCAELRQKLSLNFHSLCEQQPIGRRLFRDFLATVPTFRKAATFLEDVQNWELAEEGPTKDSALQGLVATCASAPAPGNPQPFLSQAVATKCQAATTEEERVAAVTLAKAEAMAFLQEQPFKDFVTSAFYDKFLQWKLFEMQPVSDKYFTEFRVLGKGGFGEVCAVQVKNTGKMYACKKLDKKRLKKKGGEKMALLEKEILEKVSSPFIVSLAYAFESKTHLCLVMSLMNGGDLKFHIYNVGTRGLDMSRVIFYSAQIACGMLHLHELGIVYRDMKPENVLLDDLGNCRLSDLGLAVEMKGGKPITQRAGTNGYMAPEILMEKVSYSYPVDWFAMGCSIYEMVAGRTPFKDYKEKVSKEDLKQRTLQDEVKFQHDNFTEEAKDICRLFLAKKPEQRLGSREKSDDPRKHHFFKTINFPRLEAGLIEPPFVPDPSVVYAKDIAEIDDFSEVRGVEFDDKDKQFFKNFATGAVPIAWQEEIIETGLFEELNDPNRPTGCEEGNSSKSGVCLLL
The following applies: at 10 µM.

Assay [5] concerns the target T4, Serine/threonine-protein kinase MAK (Homo sapiens) (UniProt P20794).
T4 sequence (whole entry): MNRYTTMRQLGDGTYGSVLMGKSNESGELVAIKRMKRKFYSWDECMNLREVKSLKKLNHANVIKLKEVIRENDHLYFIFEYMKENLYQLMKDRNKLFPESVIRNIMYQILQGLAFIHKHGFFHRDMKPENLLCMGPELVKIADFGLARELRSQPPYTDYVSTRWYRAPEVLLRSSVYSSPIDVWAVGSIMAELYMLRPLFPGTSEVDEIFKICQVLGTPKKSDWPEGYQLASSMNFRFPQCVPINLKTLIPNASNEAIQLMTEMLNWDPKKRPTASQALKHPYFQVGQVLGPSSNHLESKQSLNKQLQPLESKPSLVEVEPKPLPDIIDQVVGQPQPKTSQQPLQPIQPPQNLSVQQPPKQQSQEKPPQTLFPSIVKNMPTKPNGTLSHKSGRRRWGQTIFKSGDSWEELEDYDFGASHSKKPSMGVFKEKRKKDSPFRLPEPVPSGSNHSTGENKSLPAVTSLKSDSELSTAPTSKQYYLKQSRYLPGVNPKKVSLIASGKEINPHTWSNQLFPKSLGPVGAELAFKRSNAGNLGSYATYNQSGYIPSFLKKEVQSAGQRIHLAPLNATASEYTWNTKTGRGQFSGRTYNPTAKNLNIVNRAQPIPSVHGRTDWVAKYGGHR
Briefly: Selectivity interaction (Ambit KINOMEscan and KiNATiv profiling in Jurkat cells) EUB0000090b MAK. The format is cell-based. The following applies: at 1 µM.

Assay [6] relates to Receptor-type tyrosine-protein kinase FLT3 (Homo sapiens), P36888 [UNDEFINED MUTATION]. Briefly: Selectivity interaction (KinomeScan (DiscoverX)) EUB0001049a FLT3. The following applies: at 1 µM.
In assay [7] the target is Proto-oncogene tyrosine-protein kinase Src (Homo sapiens, UniProt P12931). Briefly: Selectivity interaction (KinomeScan (DiscoverX)) EUB0000655a SRC. The following applies: at 10 µM.
The target of assay [8] is Calcium/calmodulin-dependent protein kinase kinase 2 (Homo sapiens) (UniProt Q96RR4). Briefly: Selectivity interaction (Kinase panel (DSF assay)) EUB0001558a CAMKK2. In general terms: Differential scanning fluorimetry follows unfolding on heating by fluorescence.
The next assay concerns the target Activated CDC42 kinase 1 (Homo sapiens, UniProt Q07912). Briefly: Selectivity interaction (KinomeScan (DiscoverX)) EUB0001079a TNK2. The following applies: at 1 µM.

Sequence of Calcium/calmodulin-dependent protein kinase kinase 2 (Homo sapiens) (Q96RR4 2-588 limits assumed): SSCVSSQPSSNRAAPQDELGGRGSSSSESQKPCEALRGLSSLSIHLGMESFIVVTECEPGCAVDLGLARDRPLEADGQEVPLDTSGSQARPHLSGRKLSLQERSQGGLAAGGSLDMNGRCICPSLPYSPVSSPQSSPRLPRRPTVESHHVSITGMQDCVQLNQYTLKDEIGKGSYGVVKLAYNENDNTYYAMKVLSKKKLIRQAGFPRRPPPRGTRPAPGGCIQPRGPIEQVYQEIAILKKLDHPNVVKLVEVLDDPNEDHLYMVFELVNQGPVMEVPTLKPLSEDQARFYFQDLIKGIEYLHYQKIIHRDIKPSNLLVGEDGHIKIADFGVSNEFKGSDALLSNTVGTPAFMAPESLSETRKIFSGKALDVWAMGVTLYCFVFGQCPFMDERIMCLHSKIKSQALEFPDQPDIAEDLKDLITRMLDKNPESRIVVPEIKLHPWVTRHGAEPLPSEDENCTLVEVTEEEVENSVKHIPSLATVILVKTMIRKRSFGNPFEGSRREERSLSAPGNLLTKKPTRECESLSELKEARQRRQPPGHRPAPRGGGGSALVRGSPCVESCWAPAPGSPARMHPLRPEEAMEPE
Sequence of Receptor-type tyrosine-protein kinase FLT3 (Homo sapiens), P36888 [UNDEFINED MUTATION] (P36888 whole entry, looked up, change not shown): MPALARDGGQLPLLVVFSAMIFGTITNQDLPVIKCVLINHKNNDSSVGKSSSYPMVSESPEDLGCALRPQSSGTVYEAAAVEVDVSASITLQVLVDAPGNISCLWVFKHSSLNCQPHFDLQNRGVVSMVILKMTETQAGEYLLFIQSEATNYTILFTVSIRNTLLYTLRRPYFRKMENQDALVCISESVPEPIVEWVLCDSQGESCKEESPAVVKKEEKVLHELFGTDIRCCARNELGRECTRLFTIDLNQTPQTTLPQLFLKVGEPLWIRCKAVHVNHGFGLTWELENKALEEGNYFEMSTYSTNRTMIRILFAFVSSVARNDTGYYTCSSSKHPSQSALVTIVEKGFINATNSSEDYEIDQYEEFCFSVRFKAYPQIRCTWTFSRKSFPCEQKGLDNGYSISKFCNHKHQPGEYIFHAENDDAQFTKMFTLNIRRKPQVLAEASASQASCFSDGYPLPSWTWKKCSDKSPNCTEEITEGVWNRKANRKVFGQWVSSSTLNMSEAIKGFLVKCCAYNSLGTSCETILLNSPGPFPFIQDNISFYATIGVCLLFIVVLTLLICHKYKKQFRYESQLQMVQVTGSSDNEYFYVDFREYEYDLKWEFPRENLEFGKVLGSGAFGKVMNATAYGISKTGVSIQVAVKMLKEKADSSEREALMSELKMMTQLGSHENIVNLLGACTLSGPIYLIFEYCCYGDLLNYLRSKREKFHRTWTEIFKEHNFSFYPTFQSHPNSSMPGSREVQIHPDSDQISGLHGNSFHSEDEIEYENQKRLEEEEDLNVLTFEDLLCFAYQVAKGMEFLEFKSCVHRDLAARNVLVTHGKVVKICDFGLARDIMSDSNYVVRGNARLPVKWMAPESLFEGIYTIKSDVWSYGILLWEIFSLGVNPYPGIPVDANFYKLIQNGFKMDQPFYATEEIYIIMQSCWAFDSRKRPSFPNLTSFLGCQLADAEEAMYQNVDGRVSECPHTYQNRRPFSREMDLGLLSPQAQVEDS
Sequence of LIM domain kinase 1 (Homo sapiens) (P53667 whole entry, looked up, the tested form may be a part): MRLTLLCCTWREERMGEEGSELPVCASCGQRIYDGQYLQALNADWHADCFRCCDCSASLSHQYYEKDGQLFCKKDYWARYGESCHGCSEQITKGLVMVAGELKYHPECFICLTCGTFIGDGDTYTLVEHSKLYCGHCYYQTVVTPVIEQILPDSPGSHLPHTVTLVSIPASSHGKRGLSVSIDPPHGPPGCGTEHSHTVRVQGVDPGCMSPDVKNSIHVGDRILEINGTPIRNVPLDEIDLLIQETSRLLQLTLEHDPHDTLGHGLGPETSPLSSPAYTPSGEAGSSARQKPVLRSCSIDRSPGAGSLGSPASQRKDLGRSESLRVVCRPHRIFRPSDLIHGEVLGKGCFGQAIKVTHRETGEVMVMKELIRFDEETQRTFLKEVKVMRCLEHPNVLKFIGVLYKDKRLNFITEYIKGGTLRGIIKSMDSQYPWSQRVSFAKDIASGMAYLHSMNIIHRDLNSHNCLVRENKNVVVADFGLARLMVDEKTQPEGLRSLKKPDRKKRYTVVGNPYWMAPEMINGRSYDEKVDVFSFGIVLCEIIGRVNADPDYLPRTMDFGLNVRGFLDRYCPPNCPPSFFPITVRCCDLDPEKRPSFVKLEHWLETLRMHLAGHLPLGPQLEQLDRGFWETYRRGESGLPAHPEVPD
Sequence of Activated CDC42 kinase 1 (Q07912 whole entry, looked up): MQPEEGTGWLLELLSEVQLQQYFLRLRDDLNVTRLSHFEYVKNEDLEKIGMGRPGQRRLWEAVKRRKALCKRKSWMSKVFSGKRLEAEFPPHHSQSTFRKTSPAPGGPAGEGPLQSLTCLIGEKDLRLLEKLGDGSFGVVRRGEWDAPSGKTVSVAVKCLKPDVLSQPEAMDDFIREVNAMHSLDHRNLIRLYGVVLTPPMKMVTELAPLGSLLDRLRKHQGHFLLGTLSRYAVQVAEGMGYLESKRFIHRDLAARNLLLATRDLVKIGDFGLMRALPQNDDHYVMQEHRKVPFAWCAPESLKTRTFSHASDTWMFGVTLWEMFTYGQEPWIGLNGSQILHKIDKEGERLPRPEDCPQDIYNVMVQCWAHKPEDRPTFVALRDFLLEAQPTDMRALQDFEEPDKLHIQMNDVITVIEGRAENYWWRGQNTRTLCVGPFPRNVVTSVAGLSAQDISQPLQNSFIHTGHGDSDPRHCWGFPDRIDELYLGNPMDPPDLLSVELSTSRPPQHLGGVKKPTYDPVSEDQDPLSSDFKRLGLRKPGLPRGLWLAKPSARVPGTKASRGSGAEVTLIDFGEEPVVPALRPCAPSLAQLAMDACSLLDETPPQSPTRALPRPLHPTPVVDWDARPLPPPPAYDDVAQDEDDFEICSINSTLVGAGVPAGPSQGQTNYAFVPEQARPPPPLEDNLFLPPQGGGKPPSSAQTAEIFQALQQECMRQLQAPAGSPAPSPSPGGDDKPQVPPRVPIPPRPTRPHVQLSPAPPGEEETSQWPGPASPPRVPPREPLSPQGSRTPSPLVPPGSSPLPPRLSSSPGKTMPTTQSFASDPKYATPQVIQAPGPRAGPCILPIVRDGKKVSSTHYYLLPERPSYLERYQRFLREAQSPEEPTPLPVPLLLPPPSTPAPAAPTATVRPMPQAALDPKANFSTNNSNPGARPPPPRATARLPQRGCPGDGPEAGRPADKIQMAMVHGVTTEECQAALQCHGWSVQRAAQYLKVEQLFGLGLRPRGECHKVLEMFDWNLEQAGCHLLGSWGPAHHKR
Sequence of Proto-oncogene tyrosine-protein kinase Src (P12931 2-536 limits assumed): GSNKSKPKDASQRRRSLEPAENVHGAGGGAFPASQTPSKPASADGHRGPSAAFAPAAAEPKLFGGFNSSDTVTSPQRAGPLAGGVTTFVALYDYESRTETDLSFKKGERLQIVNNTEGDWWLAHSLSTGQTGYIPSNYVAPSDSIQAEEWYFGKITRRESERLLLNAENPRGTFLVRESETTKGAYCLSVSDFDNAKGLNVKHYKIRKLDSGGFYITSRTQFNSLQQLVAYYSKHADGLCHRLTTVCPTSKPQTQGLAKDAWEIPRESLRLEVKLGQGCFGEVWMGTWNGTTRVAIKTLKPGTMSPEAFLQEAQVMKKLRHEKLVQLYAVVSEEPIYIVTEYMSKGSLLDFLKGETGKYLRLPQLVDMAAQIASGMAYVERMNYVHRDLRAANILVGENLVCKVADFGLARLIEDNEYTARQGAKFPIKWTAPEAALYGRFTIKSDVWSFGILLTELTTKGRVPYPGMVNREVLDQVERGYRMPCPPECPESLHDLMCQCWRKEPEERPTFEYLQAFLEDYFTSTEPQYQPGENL

With `COCC(=O)NC/C=C/c1ccc2ncnc(Nc3ccc(Oc4ccc(C)nc4)c(C)c3)c2c1` [CP-724714], the % of control in assay [1] was found to be 93%. `N#Cc1cccc(-c2c[nH]c3ncnc(N4CCOCC4)c23)c1` returned a % of inhibition in assay [2] of 13%.

`CCN(CC)CCCCNc1ncc2cc(-c3cc(OC)cc(OC)c3)c(NC(=O)NC(C)(C)C)nc2n1`: the % of control in assay [3] stood at 100%. In assay [4], `Cc1cc([C@@H](C)Nc2ccccc2C(=O)O)c2nc(N3CCOCC3)cc(=O)n2c1` [AZD-6482] showed a % of control of 57%.

As for `CN(C)C/C=C/C(=O)Nc1ccc(C(=O)N2CCCC(Nc3ncc(Cl)c(-c4c[nH]c5ccccc45)n3)C2)cc1` (centres undefined), the % of control in assay [5] came to 63%. The compound `COc1cc(Nc2nc(C)cc(-c3cnn4nc(OC)ccc34)n2)cc(C(F)(F)F)c1` had a % of control in assay [6] of 73%. As for `CN(C)CCOc1ccc(-c2nc(-c3ccncc3)c(-c3ccc4c(c3)CC/C4=N\O)[nH]2)cc1`, in assay [7], the % of control came out at 77%. Turning to `CC(C)(O)[C@H](F)CN1Cc2cc(NC(=O)c3cnn4cccnc34)c(N3CCOCC3)cc2C1=O`, the dTM in assay [8] was found to be 4.3 K. On Activated CDC42 kinase 1, `Nc1cnc(N2CCc3cc(S(=O)(=O)Nc4c(F)cc(Cl)cc4F)cc(N4CCCC4=O)c32)nc1` [TP-020n] showed a % of control of 91%.
